The record followed here is patent publication US8809369B2, “Tetrahydroquinoline derivatives” (Hoffmann-La Roche Inc., priority 2011, dated 2014).

Test [1] has as its system ACC (acetyl-CoA carboxylase). As to the kind of experiment: p-ACC expression level in L6 cell line by Western blot. The format is cell-based. Conditions: Rattus norvegicus, L6 cells, 2 hours compound treatment, read-out: Activity AC1.3 (ACCp). The protocol: Evaluation of p-AMPK and p-ACC expression level in L6 cell line by Western-Blot
This method evaluates the changes of AMP-activated protein kinase (AMPK) and ACC (acetyl-CoA carboxylase) activity by small molecular modulators through detecting the level of p-AMPK and p-ACC proteins in L6 cells using Western blot.
L6 cells are maintained in DMEM medium supplemented with 10% FBS in 10-cm dishes. Prior to compounds treatment, L6 cells are seeded in 12-well-plates at concentration of 3×10^4 cells per well. After 24 hours of incubation in 12-well plates, L6 cells are differentiated by replacing the 10% FBS-DMEM medium with 2% FBS-DMEM. Differentiation usually takes 5 days, during which the culture medium is changed every 2 days.
The compound concentrations typically range from 32 μM to 0.5 μM with 2-fold dilution in 2 ml DMEM and 7 doses. The final DMSO concentration is 0.4%. Berberine is used as a positive control at concentration of 16 μM. Before compound treatment, starve L6 cells for 2 hours by replacing the medium with DMEM, and then gently aspirate the media from each well. Add the compounds into the plates and incubate at 37 degree 5% CO2 for 2 hours.
Prepare lysis buffer (RIPA buffer with protease-inhibitors and phosphorate-inhibitors) and place it on ice. After two hour's compound treatment, aspirate the medium from 12-well plates, add 70 ul lysis buffer to each well and keep the plates on ice for 5 min. Then scrape the cell lysate off the plates and transfer it to 1.5 ml eppendorf tubes. Keep the tube on ice for more 10 min, centrifugate the lysate at 13000 rpm, 4 degrees for 15 min and transfer the supernatant to clean tubes.
Determine protein concentration for each sample using Quickstart Bradford protein quantitation kit. Mix 20 ug protein sample with 4 times loading buffer, heat them at 100° C. for 5 min, store the sample in −80° C. or perform Western blot assay directly. For Western blot assay, load 20 ug samples and 10 ul Pre-stained Protein Maker into 4-12% SDS-PAGE gradient gel. Run the samples at 100 V in the stacking gel and at 120 V in resolving gel until the Bromophenol dye reaches the bottom. Transfer the electrophoresed proteins to a PVDF membrane using Bio-Rad's Transblot for 120 min at 300 mA. Following the completion of transfer, the membrane is blocked with 5% non-fat milk for 2 hours at room temperature before incubated with primary antibody (p-AMPK and p-ACC) at 4° C. overnight. On the next day wash the membrane twice with TBST, add secondary antibody and incubate for 1 hour at room temperature. Wash the membrane twice with TBST. Develop p-AMPK and p-ACC protein expression level on the film in dark room with Amersham ECL plus kit. The bands of each sample are quantitated by Bio-Rad system, The AC1.3 value is analyzed using Prism 5.0.
A general note: In western blotting, separated proteins are transferred to a membrane and probed.

The test system of test [2] is AMP-activated protein kinase (AMPK). Briefly: p-AMPK expression level in L6 cell line by Western blot. The format is cell-based. The note with it: L6 cells, 2 hours compound treatment. In outline: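 Rat L6 myoblasts differentiated 5 days in 2% FBS-DMEM, starved 2 h in DMEM, then treated 2 h at 37° C. with compounds at 32-0.5 μM (2-fold, 7 doses; 0.4% DMSO). Lysates (20 μg) probed by Western blot for p-AMPK and p-ACC with ECL detection. AC1.3 derived from band quantitation.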

In the case of `CC1(C)CC(c2cccnc2)Nc2ccc(C(=O)NS(C)(=O)=O)cc21` (stereo not shown) [Example 18, N-(4,4-dimethyl-2-pyridin-3-yl-1,2,3,4-tetrahydro-quinoline-6-carbonyl)-methanesulfonamide], the EC (1.3-fold) in test [1] turned out to be 20 µM. In addition, the “Activity AC1.3 (AMPKp)” value in test [2] worked out at 7.98 µM.

`Cc1ccc(N2CCOCC2)cc1C1CC(C)(C)c2cc(C(=O)NS(C)(=O)=O)ccc2N1` (stereo not shown) [Example 22, N-[4,4-dimethyl-2-(2-methyl-5-morpholin-4-yl-phenyl)-1,2,3,4-tetrahydro-quinoline-6-carbonyl]-methanesulfonamide]: the EC (1.3-fold) in test [1] is 0.16 µM. Besides, the “Activity AC1.3 (AMPKp)” value in test [2] stood at 0.02 µM.

Consider `CC(C)(C)c1ccc(-c2cccc(C3CC(C)(C)c4cc(C(=O)NS(=O)(=O)C5CC5)ccc4N3)c2)cc1` (stereo not shown) [Example 40, Cyclopropanesulfonic acid [2-(4′-tert-butyl-biphenyl-3-yl)-4,4-dimethyl-1,2,3,4-tetrahydro-quinoline-6-carbonyl]-amide], for which, in test [1], the EC (1.3-fold) came out at 6.17 µM. In addition, the “Activity AC1.3 (AMPKp)” value in test [2] is 6.6 µM.

Regarding `Cc1ccc(N2CCN(c3cncc(C4CC(C)(C)c5cc(C(=O)NS(C)(=O)=O)ccc5N4)c3)CC2)c(C)c1` (stereo not shown) [Example 49, N-(2-{5-[4-(2,4-dimethyl-phenyl)-piperazin-1-yl]-pyridin-3-yl}-4,4-dimethyl-1,2,3,4-tetrahydro-quinoline-6-carbonyl)-methanesulfonamide], in test [1], the EC (1.3-fold) was determined as 6.93 µM. In addition, in test [2], the “Activity AC1.3 (AMPKp)” value is 0.15 µM.

For the molecule `Cc1ccc(N2CCN(c3cccc(C4CC(C)(C)c5cc(C(=O)NS(C)(=O)=O)ccc5N4)c3)CC2)c(C)c1` (stereo not shown) [Example 53, N-(2-{3-[4-(2,4-dimethyl-phenyl)-piperazin-1-yl]-phenyl}-4,4-dimethyl-1,2,3,4-tetrahydro-quinoline-6-carbonyl)-methanesulfonamide], in test [1], the EC (1.3-fold) came to 11.7 µM. The “Activity AC1.3 (AMPKp)” value in test [2] is 4.79 µM.

For `Cc1ccccc1N1CCN(c2cccc(C3CC(C)(C)c4cc(F)cc(C(=O)NS(C)(=O)=O)c4N3)c2)CC1` (stereo not shown) [Example 57, N-{6-fluoro-4,4-dimethyl-2-[3-(4-o-tolyl-piperazin-1-yl)-phenyl]-1,2,3,4-tetrahydro-quinoline-8-carbonyl}-methanesulfonamide], in test [1], the EC (1.3-fold) stood at 0.61 µM. In addition, in test [2], the “Activity AC1.3 (AMPKp)” value turned out to be 0.85 µM.

Consider `Cc1ccccc1N1CCN(c2cccc(C3CC(C)(C)c4cc(F)cc(C(=O)NS(=O)(=O)C5CC5)c4N3)c2)CC1` (stereo not shown) [Example 58, Cyclopropanesulfonic acid {6-fluoro-4,4-dimethyl-2-[3-(4-o-tolyl-piperazin-1-yl)-phenyl]-1,2,3,4-tetrahydro-quinoline-8-carbonyl}-amide], for which the EC (1.3-fold) in test [1] worked out at 0.36 µM. Further, the “Activity AC1.3 (AMPKp)” value in test [2] stood at 0.46 µM.

For `CC1(C)CC(c2cccc(N3CCN(c4ccccc4F)CC3)c2)Nc2c(C(=O)NS(C)(=O)=O)cc(F)cc21` (stereo not shown) [Example 59, N-(6-fluoro-2-{3-[4-(2-fluoro-phenyl)-piperazin-1-yl]-phenyl}-4,4-dimethyl-1,2,3,4-tetrahydro-quinoline-8-carbonyl)-methanesulfonamide], in test [1], the EC (1.3-fold) is 0.74 µM. The “Activity AC1.3 (AMPKp)” value in test [2] was 7.73 µM.

On to `CC1(C)CC(c2cccc(N3CCCC3)c2)Nc2c(C(=O)NS(=O)(=O)C3CC3)cc(Cl)cc21` (stereo not shown) [Example 72, Cyclopropanesulfonic acid [6-chloro-4,4-dimethyl-2-(3-pyrrolidin-1-yl-phenyl)-1,2,3,4-tetrahydro-quinoline-8-carbonyl]-amide], for which, in test [1], the EC (1.3-fold) was determined as 3.49 µM. The “Activity AC1.3 (AMPKp)” value in test [2] turned out to be 0.14 µM.

In the case of `CC(C)(C)c1ccc(-c2cncc(C3CC(C)(C)c4cc(C(=O)NS(=O)(=O)C5CC5)ccc4N3)c2)cc1` (stereo not shown) [Example 74, Cyclopropanesulfonic acid {2-[5-(4-tert-butyl-phenyl)-pyridin-3-yl]-4,4-dimethyl-1,2,3,4-tetrahydro-quinoline-6-carbonyl}-amide], the EC (1.3-fold) in test [1] stood at 1.67 µM. Moreover, the “Activity AC1.3 (AMPKp)” value in test [2] came to 0.06 µM.

`CC1(C)CC(c2cccc(N3CCN(c4ccccc4)CC3)c2)Nc2c(C(=O)NS(=O)(=O)C3CC3)cccc21` (stereo not shown) [Example 76, Cyclopropanesulfonic acid {4,4-dimethyl-2-[3-(4-phenyl-piperazin-1-yl)-phenyl]-1,2,3,4-tetrahydro-quinoline-8-carbonyl}-amide]: in test [1], the EC (1.3-fold) is 0.57 µM. Moreover, the “Activity AC1.3 (AMPKp)” value in test [2] came out at 3.12 µM.
